Data set [1] deals with plasma protein. Put plainly: Plasma protein binding (PPB), equilibrium dialysis, H plasma. In kind it is in vitro ADME, human. The note with it: 2 μM, 4 hr dialysis. The method, then: (§1) Assay procedure: 995 μL of blank plasma of various genera were weighed, and 5 μL of assay compound working solution (400 μM) or warfarin working solution (400 μM) was added so that the final concentrations of the assay compound and warfarin in plasma sample were each 2 μM. The samples were mixed thoroughly. The final concentration of DMSO (the organic phase) was 0.5%. 50 μL of the plasma samples of the assay compound and warfarin were pipetted to a sample receiving plate (in triplicate), and the corresponding volume of corresponding blank plasma or buffer was added immediately, so that the final volume in each sample well was 100 μL, wherein the volume ratio of plasma:dialysis buffer was 1:1. 500 μL of stop solution was then added to these samples. These samples were used as T0 samples for determination of recovery and stability. […] All samples were subjected to protein precipitation, and then analyzed by LC/MS/MS. Bound rate and recovery rate of protein were calculated using the following formulae: % Unbound=100*F/T % Bound=100−% Unbound, % Recovery=100*(F+T)/T0 (wherein F is the peak area ratio of the compound in the dialysate after 4 h of dialysis; T is the peak area ratio of the compound in the plasma after 4 h of dialysis; T0 is the peak area ratio of the compound in the plasma sample at time zero).

The subject of data set [2] is plasma protein. Put plainly: Plasma protein binding (PPB), equilibrium dialysis, D plasma. It counts as in vitro ADME, dog. The note with it: 2 μM, 4 hr dialysis. The method, then: as §1
Data set [3] concerns plasma protein. Put plainly: Plasma protein binding (PPB), equilibrium dialysis, C plasma. It counts as in vitro ADME, monkey. The note with it: 2 μM, 4 hr dialysis. The method, then:
as §1
In general terms: Equilibrium dialysis compares concentrations on both sides of a semipermeable membrane.

In data set [4] the test system is plasma protein. In words: Plasma protein binding (PPB), equilibrium dialysis, R plasma. In kind it is in vitro ADME, rat. The conditions noted are these: 2 μM, 4 hr dialysis. The protocol:
as §1

In data set [5] the test system is plasma protein. In words: Plasma protein binding (PPB), equilibrium dialysis, M plasma. It counts as in vitro ADME, mouse. The note with it: 2 μM, 4 hr dialysis. The protocol: as §1
Data set [6] can be described thus: Pharmacokinetic evaluation of compounds in mice. The note with it: mouse, plasma; CD-1 male mice, IV, 1.03 mg/kg. It counts as in vivo, CD-1 mice. The method, then:
Purpose of assay: To assay the pharmacokinetic data of the compounds in CD-1 mice in vivo.
Compounds were mixed with vehicle 5% DMSO/95% (10% HP-β-CD aqueous solution), and the mixture was vortexed and sonicated to give 0.2 mg/mL-0.3 mg/mL clear solutions. CD-1 male mice aged 7 to 10 weeks were selected, and the candidate compound solution was administered intravenously. Whole blood was collected for a certain period of time to prepare the plasma. The drug concentration was analyzed by LC-MS/MS method and pharmacokinetic parameters were calculated by Phoenix WinNonlin software (Pharsight, USA).
Compounds were mixed with vehicle 5% DMSO/95% (10% HP-β-CD in water), and the mixture was vortexed and sonicated to give 1.6 mg/mL to 4.0 mg/mL clear solutions. CD-1 male mice aged 7 to 10 weeks were selected, and the candidate compound solution was orally administered. Whole blood was collected for a certain period of time to prepare plasma. The drug concentration was analyzed by LC-MS/MS method, and pharmacokinetic parameters were calculated by Phoenix WinNonlin software (Pharsight, USA).

As usually defined, the AUC(0-inf) is total exposure, with the tail of the curve extrapolated. Higher therefore signals more exposure. As a reminder, the Vd is a proportionality between amount in the body and measured concentration, not a real space. A low value points to little distribution into tissue. What is called clearance is a measure of how efficiently the substance is removed, as volume per time. A high value points to a high capacity for elimination. In general, half-life refers to the time needed for the level to fall by half in the phase considered.

On to `C#Cc1c(F)ccc2cc(O)cc(-c3ccc4c(N5CC6CCC(C5)N6)nc(OC[C@@]56CCCN5C[C@H](F)C6)nc4c3F)c12` [Compound 010], for which the “Unbound PPB H” value in the data set with plasma protein [1] was 2.9%. The “Unbound PPB D” value in the data set on plasma protein [2] worked out at 2.2%. Besides, the “Unbound PPB C” value in the data set on plasma protein [3] is listed as 1.9%. The “Unbound PPB R” value in the data set on plasma protein [4] was 1.3%. For the same compound, the “Unbound PPB M” value in the data set with plasma protein [5] was 2.0%. Besides, in data set [6], the AUC(0-inf) amounted to 0.457 µM·h, the C0 was determined as 712 nM, the Vd was found to be 25 L/kg and the clearance was 61.4 mL/min/kg. The half-life in data set [6] was 8.1 h.

For the origin of these results see patent US20240174692A1, “PYRIMIDINE AROMATIC RING COMPOUNDS” (Medshine Discovery Inc., priority 2021, published 2024).
